Literature values as cited in patent US20260284018A1, “DUAL INHIBITORS OF DYRK1A AND 5-HT2 FOR TREATING A BRAIN DISORDER” (THE REGENTS OF THE UNIVERSITY OF CALIFORNIA, priority 2023, published 2026).

Tests used:
Conditions in all cases: 10 μM; cited from earlier work
[1] = target: T1, ABL1(E255K)-phosphorylated (Homo sapiens, UniProt P00519, E255K)
T1 construct: purchased Eurofins DiscoverX

BRAF = target: T2, BRAF (Homo sapiens, UniProt P15056)
T2 construct: purchased Eurofins DiscoverX

BTK = target: T3, BTK (Homo sapiens, UniProt Q06187)
T3 construct: purchased Eurofins DiscoverX

ERBB2 = target: T4, ERBB2 (Homo sapiens, UniProt P04626)
T4 construct: purchased Eurofins DiscoverX

FLT3 = target: T5, FLT3 (Homo sapiens, UniProt P36888)
T5 construct: purchased Eurofins DiscoverX

INSR = target: T6, INSR (Homo sapiens, UniProt P06213)
T6 construct: purchased Eurofins DiscoverX

[2] = target: T7, JAK2(JH1domain-catalytic) (Homo sapiens, UniProt O60674)
T7 construct: JAK2(JH1domain-catalytic); purchased Eurofins DiscoverX

JNK1 = target: T8, JNK1 (Homo sapiens, UniProt P45983)
T8 construct: purchased Eurofins DiscoverX

JNK3 = target: T9, JNK3 (Homo sapiens, UniProt P53779)
T9 construct: purchased Eurofins DiscoverX

MKNK2 = target: T10, MKNK2 (Homo sapiens, UniProt Q9HBH9)
T10 construct: purchased Eurofins DiscoverX (KINOMEscan scanEDGE service)

p38-beta = target: T11, p38-beta (Homo sapiens, UniProt Q15759)
T11 construct: purchased Eurofins DiscoverX (KINOMEscan scanEDGE service)

PAK1 = target: T12, PAK1 (Homo sapiens, UniProt Q13153)
T12 construct: purchased Eurofins DiscoverX (KINOMEscan scanEDGE service)

PCTK1 = target: T13, PCTK1 (Homo sapiens, UniProt Q00536)
T13 construct: purchased Eurofins DiscoverX (KINOMEscan scanEDGE service)

PIK3C2B = target: T14, PIK3C2B (Homo sapiens, UniProt O00750)
T14 construct: purchased Eurofins DiscoverX (KINOMEscan scanEDGE service)

PRKCE = target: T15, PRKCE (Homo sapiens, UniProt Q02156)
T15 construct: purchased Eurofins DiscoverX KINOMEscan scanEDGE

RAF1 = target: T16, RAF1 (Homo sapiens, UniProt P04049)
T16 construct: purchased Eurofins DiscoverX KINOMEscan scanEDGE

TRKA = target: T17, TRKA (Homo sapiens, UniProt P04629)
T17 construct: purchased Eurofins DiscoverX KINOMEscan scanEDGE

TSSK1B = target: T18, TSSK1B (Homo sapiens, UniProt Q9BXA7)
T18 construct: purchased Eurofins DiscoverX KINOMEscan scanEDGE

ULK2 = target: T19, ULK2 (Homo sapiens, UniProt Q8IYT8)
T19 construct: purchased Eurofins DiscoverX KINOMEscan scanEDGE

ZAP70 = target: T20, ZAP70 (Homo sapiens, UniProt P43403)
T20 construct: purchased Eurofins DiscoverX KINOMEscan scanEDGE

T11 sequence (Q15759 whole entry): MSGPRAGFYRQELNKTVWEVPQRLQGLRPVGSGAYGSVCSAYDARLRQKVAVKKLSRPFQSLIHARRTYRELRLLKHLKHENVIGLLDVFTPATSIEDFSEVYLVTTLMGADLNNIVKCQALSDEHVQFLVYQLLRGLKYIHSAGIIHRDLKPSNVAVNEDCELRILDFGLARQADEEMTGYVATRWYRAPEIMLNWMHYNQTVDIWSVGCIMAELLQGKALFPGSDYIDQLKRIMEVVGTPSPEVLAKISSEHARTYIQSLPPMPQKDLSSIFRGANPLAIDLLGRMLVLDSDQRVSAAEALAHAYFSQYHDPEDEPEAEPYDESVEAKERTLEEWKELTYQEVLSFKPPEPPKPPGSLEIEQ
T13 sequence (Q00536 whole entry): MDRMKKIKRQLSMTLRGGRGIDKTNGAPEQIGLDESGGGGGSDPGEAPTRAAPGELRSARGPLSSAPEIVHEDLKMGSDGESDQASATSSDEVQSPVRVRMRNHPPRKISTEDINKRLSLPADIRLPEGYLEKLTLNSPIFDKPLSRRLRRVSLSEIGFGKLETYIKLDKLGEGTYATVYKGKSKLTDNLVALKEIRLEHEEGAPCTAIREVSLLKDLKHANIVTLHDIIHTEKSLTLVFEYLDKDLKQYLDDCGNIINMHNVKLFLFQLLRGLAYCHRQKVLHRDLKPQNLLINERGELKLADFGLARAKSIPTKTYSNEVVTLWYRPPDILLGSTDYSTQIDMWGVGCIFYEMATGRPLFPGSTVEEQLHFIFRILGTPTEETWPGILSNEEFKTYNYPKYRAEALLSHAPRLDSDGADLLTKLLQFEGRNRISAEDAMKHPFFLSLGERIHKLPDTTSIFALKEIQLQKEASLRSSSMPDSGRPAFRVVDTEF
T9 sequence (P53779 whole entry): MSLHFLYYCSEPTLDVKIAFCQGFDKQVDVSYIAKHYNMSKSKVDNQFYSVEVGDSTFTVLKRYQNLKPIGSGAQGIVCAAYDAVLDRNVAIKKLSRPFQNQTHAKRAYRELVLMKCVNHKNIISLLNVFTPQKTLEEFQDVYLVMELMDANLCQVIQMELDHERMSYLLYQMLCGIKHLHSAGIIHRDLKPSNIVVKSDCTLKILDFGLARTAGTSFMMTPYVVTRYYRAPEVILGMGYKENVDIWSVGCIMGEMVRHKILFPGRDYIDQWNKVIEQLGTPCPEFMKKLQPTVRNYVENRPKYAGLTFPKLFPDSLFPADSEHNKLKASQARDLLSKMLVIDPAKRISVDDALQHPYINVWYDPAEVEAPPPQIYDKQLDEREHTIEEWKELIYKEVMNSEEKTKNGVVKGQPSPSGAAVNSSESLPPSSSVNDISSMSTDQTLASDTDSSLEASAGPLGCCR
T2 sequence (P15056 whole entry): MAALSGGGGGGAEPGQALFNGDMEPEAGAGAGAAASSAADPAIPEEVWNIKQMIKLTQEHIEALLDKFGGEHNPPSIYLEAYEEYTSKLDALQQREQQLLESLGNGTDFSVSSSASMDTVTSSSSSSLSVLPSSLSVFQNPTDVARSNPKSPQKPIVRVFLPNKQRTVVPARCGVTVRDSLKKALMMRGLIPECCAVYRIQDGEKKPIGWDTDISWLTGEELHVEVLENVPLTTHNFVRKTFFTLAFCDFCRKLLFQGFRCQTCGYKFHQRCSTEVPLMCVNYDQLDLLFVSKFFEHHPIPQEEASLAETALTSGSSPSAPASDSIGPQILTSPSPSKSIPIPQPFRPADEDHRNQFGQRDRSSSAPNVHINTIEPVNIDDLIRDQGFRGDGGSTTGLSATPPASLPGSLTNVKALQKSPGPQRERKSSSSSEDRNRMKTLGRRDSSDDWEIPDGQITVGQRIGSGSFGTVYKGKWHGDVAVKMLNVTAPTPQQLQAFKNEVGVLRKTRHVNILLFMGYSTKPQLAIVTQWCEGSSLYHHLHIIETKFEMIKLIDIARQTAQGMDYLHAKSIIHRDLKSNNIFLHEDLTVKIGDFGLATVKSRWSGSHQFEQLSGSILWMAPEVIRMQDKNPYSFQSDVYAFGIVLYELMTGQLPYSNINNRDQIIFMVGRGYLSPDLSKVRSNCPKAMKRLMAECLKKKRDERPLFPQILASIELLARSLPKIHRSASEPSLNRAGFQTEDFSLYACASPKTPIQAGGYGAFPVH
T3 sequence (Q06187 whole entry): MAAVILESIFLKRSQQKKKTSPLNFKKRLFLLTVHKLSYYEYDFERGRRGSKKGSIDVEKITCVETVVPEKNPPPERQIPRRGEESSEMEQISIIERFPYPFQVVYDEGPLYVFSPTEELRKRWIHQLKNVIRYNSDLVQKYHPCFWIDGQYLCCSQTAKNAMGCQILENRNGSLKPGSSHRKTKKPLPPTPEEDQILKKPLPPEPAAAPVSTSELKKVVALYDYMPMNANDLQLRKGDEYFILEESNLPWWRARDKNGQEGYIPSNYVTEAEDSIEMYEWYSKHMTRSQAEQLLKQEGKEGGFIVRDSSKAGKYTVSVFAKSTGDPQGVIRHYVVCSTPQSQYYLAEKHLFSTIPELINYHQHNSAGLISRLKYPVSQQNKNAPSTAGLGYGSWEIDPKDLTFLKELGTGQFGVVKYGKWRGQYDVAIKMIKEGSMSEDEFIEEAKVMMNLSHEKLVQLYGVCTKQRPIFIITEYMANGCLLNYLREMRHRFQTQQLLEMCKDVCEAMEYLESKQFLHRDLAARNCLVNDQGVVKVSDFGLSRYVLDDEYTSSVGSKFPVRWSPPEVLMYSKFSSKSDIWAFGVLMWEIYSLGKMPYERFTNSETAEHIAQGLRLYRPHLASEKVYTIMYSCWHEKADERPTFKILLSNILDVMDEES
T17 sequence (P04629 33-796): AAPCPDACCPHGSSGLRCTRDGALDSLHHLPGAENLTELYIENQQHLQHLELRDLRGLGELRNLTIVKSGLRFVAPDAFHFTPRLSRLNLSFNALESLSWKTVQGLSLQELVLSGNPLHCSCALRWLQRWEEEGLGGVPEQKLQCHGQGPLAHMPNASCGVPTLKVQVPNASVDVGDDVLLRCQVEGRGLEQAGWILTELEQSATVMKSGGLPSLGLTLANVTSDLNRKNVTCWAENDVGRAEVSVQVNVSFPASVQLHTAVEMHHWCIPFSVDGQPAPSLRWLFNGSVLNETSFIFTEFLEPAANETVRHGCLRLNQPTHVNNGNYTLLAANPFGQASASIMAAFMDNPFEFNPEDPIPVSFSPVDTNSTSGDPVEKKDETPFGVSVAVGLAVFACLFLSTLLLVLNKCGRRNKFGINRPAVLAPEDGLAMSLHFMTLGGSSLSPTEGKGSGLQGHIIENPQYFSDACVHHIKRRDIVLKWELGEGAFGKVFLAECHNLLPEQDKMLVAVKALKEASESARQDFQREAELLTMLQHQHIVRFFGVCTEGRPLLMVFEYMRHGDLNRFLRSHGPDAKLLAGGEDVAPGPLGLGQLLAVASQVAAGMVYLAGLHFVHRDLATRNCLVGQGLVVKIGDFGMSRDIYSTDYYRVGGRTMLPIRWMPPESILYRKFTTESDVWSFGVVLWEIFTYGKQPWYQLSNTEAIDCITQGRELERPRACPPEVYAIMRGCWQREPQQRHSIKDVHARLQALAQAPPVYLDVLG
T19 sequence (Q8IYT8 whole entry): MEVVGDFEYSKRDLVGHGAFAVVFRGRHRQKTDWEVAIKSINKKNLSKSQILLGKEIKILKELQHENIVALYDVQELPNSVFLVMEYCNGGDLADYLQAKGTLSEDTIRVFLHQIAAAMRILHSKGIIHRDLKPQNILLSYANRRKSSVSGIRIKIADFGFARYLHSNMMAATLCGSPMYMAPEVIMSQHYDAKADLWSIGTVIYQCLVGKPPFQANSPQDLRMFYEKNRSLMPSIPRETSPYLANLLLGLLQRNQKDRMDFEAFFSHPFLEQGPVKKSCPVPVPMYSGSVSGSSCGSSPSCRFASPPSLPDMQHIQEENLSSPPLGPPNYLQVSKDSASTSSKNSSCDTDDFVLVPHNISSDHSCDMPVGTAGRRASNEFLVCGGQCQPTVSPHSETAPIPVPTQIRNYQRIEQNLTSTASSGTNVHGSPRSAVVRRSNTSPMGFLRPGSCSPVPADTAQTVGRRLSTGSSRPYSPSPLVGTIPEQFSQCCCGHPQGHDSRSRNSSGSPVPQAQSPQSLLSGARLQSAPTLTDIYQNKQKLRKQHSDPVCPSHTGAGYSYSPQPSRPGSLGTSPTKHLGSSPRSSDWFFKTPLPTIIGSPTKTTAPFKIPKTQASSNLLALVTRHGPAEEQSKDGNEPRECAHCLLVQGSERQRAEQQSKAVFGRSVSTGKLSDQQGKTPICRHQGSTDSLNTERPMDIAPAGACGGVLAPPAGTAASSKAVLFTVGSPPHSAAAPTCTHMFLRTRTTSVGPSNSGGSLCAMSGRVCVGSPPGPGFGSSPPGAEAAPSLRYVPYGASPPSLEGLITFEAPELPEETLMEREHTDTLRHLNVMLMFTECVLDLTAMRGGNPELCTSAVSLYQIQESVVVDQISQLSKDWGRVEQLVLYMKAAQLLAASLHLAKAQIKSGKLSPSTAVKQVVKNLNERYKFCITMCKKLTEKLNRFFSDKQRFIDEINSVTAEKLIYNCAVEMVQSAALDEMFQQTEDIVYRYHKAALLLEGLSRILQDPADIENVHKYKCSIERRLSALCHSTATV
T7 sequence (O60674 849-1124 limits assumed): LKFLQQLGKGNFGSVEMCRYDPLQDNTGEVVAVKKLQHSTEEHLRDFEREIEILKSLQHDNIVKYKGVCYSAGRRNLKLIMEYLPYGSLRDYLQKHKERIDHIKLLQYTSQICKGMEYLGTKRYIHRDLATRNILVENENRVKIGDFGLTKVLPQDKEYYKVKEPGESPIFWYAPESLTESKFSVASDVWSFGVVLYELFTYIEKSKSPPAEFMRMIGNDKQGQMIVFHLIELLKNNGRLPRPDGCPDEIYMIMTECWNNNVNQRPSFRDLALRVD

COc1ccc2c(c1)[nH]c1c(C)nccc12 [Harmine, harmine]
Percent Control [1]: 74%
Percent Control (BRAF): 100%
Percent Control (BTK): 100%
Percent Control (ERBB2): 85%
Percent Control (FLT3): 85%
Percent Control (INSR): 100%
Percent Control [2]: 92%
Percent Control (JNK1): 41%
Percent Control (JNK3): 80%
Percent Control (MKNK2): 22%
Percent Control (p38-beta): 85%
Percent Control (PAK1): 73%
Percent Control (PCTK1): 100%
Percent Control (PIK3C2B): 97%
Percent Control (PRKCE): 91%
Percent Control (RAF1): 89%
Percent Control (TRKA): 100%
Percent Control (TSSK1B): 100%
Percent Control (ULK2): 89%
Percent Control (ZAP70): 92%
